The values below come from patent publication US10588952B2, “Conjugate vaccine using trimming function of ERAP1” (SUMITOMO DAINIPPON PHARMA CO., LTD., priority 2013, dated 2020).

Converted amounts (≈) assume the structure as drawn. A value given as a limit tells only on which side of the number the result lay.

For data set [1], the target named is T1, ERAP1 (Homo sapiens, UniProt Q9NZ08). The data set can be described thus: Test of trimming of N-terminal amino acid by ERAP1 (Experimental Example 10, Examples 85-103). As to conditions: MAGE-A10 254-262 peptide obtained by ERAP1 trimming; from HPLC AUC. The format is biochemical. The procedure:
The peptides synthesized in Examples 85-103 were evaluated for N-terminal amino acid trimming efficiency using ERAP1. 50 μl of ERAP1 solution (10 μg/ml) in pH 8.0, 20 mM Tris.HCl-100 mM NaCl buffer (Tris.HCl buffer) was added to 142 μl of Tris.HCl buffer. 10 mM peptide solution in DMSO (2.0 μl) and 6.0 μL of DMSO were added to the aforementioned ERAP1 solution, and the mixture was blended well and stood at 30° C. […] The peptide to be obtained by trimming was chemically synthesized separately, and analyzed under similar conditions in the absence of the enzyme. The formation ratio of the peptide [MAGE-A10254-262 peptide ([…]) (SEQ ID NO: 19)] obtained by trimming was determined based on the obtained AUC, and is shown in Tables 45 and 46. […]
(§1) pump: UFLC manufactured by Shimadzu […]
(§2) solution: 0.1% TFA H2O(A)-0.1% TFA CH3CN(B) […]
(§3) detection wavelength: λ=220 nm gradient: concentration of SOLUTION B was raised from 10% to 50% from 0.0 min to 8.5 min

In data set [2] the target is T1, ERAP1. As to the kind of experiment: Time-course changes of trimming of N-terminal amino acid by ERAP1 (Experimental Example 2). In kind it is biochemical. The following applies: peptide obtained by trimming (SEQ ID NO: 53, 43 or 19), ERAP1 solution 0.5 mg/ml, room temperature. As to the method:
20 μl of ERAP1 solution (0.5 mg/ml) in Tris.HCl buffer was added to 172 μl of Tris.HCl buffer. 10 mM peptide solution in DMSO (8.0 μl) was added to the aforementioned ERAP1 solution, and the mixture was blended well and stood at room temperature. […]
pump: UFLC manufactured by Shimadzu column: Shim-pack XR-ODS 3.0 mmi.d.×75 mm solution: 0.05% TFA H2O(A)-0.05% TFA CH3CN(B) […]
detection wavelength: λ=220 nm gradient: Concentration of SOLUTION B was raised from 1.0% 70% from 0.0 min to 5.0 min […]
The peptide to be obtained by the trimming of the N-terminal amino acid(s) by ERAP1 is, […]

The target in data set [3] is T1, ERAP1. The data set can be described thus: Test of trimming of N-terminal amino acid by ERAP1 (Experimental Example 9, Examples 69-84).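 Note: peptide incubated with ERAP1 for 1 h before HPLC analysis.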 In kind it is biochemical. As to conditions: MAGE-A10 254-262 peptide obtained by ERAP1 trimming; from HPLC AUC. The procedure: The peptides synthesized in Examples 69-84 were evaluated for N-terminal amino acid trimming efficiency using ERAP1. 50 μl of ERAP1 solution (10 μg/ml) in pH 8.0, 20 mM Tris.HCl-100 mM NaCl buffer (Tris.HCl buffer) was added to 142 μl of Tris.HCl buffer. 10 mM peptide solution in DMSO (2.0 μl) and 6.0 μL of DMSO were added to the aforementioned ERAP1 solution, and the mixture was blended well and stood at 30° C. […] The peptide obtained by trimming was chemically synthesized separately, and analyzed under similar conditions in the absence of the enzyme. […]
as §1, §2, §3

T1 sequence (Q9NZ08 whole entry): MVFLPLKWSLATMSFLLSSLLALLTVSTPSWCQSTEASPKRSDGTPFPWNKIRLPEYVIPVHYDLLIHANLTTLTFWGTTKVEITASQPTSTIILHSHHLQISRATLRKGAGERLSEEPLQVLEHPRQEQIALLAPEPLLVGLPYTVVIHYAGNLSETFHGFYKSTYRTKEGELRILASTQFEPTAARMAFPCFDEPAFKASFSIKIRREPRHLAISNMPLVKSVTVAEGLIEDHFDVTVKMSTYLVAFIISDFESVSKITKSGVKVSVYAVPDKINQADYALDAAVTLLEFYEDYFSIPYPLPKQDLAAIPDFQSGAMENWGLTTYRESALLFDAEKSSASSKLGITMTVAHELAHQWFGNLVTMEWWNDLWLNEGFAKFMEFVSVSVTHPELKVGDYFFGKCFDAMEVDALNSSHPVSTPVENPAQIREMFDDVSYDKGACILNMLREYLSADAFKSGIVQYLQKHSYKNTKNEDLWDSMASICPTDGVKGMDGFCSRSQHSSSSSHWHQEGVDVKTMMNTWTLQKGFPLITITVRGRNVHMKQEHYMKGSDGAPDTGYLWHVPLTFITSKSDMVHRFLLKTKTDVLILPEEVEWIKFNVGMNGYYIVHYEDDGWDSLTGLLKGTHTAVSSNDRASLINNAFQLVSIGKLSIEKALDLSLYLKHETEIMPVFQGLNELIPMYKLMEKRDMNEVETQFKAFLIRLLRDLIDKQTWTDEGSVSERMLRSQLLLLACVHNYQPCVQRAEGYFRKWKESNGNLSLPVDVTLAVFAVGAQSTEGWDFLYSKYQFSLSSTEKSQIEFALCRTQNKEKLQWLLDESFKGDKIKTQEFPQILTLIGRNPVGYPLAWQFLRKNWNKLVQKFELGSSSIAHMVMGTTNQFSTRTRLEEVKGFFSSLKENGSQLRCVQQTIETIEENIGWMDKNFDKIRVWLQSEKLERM
Description for physchem: To prepare a test solution, about 1 mg of a test product was measured and the isotonic buffer (0.5 mL) was added thereto. The prepared solution was shaken at room temperature for 90 min (shaking conditions: RECIPRO SHAKER SR-1N manufactured by TAITEC, Speed=8), centrifuged (15000 rpm, 5 min, room temperature), and the supernatant after centrifugation was used as a test solution.
About 1 mg of the test product was accurately measured, dissolved in 0.1% TFA water/acetonitrile=1/1, made the total amount 10 mL, and this was used as a standard solution of the test product.
The standard solution of the test product and the test solution are analyzed by HPLC (under the analysis conditions described in Table 34), and the solubility of the test product is calculated from the ratio of peak area compared to the standard solution.
column: Chemcopack Quicksorb (4.6 mmφ×150 mm, 5 μm)
manufactured by Chemco Scientific Co., Ltd.
mobile phase: SOLUTION A; 0.1% TFA water, SOLUTION B;
0.1% TFA acetonitrile solution
column temperature: room temperature
detection wavelength: UV 254 nm, 230 nm (2 wavelength detection)
sample injection volume: 10

`CC[C@H](C)[C@H](NC(=O)[C@H](CCCCN)NC(=O)[C@@H](N)CSSC[C@H](N)C(=O)NCC(=O)N[C@@H](CC(C)C)C(=O)N[C@@H](Cc1ccc(O)cc1)C(=O)N[C@@H](CC(=O)O)C(=O)NCC(=O)N[C@@H](CCSC)C(=O)N[C@@H](CCC(=O)O)C(=O)N[C@@H](Cc1c[nH]cn1)C(=O)N[C@@H](CC(C)C)C(=O)O)C(=O)N[C@@H](Cc1ccccc1)C(=O)NCC(=O)N[C@@H](CO)C(=O)N[C@@H](CC(C)C)C(=O)N[C@@H](C)C(=O)N[C@@H](Cc1ccccc1)C(=O)N[C@@H](CC(C)C)C(=O)O` [Example 29]: the solubility (thermodynamic) (in general, the concentration in solution at equilibrium with solid) at 90 min in the data set “physchem” (pH 6) was 170 µg/mL (≈ 76.1 µM); in the data set “physchem” (pH 7.4) it was above 1000 µg/mL. The corresponding values for `CC[C@H](C)[C@H](NC(=O)[C@H](CCCCN)NC(=O)[C@@H](N)CSSC[C@H](N)C(=O)N[C@H](C)C(=O)N[C@@H](CCCCN)C(=O)N[C@@H](Cc1ccccc1)C(=O)N[C@H](C(=O)N[C@@H](C)C(=O)N[C@@H](C)C(=O)N[C@@H](Cc1c[nH]c2ccccc12)C(=O)N[C@H](C(=O)N[C@@H](CC(C)C)C(=O)N[C@@H](CCCCN)C(=O)N[C@@H](C)C(=O)N[C@@H](C)C(=O)N[C@H](C)C(=O)O)[C@@H](C)O)C(C)C)C(=O)N[C@@H](Cc1ccccc1)C(=O)NCC(=O)N[C@@H](CO)C(=O)N[C@@H](CC(C)C)C(=O)N[C@@H](C)C(=O)N[C@@H](Cc1ccccc1)C(=O)N[C@@H](CC(C)C)C(=O)O` [Example 112] are below 1 µg/mL and 2 µg/mL (≈ 0.785 µM). As for `CC[C@H](C)[C@H](NC(=O)[C@H](CCCCN)NC(=O)[C@@H](N)CSSC[C@H](NC(=O)[C@@H](C)NC(=O)[C@H](C)NC(=O)[C@H](C)NC(=O)[C@H](CCCCN)NC(=O)[C@H](CC(C)C)NC(=O)[C@@H](NC(=O)[C@H](Cc1c[nH]c2ccccc12)NC(=O)[C@H](C)NC(=O)[C@H](C)NC(=O)[C@@H](NC(=O)[C@H](Cc1ccccc1)NC(=O)[C@H](CCCCN)NC(=O)[C@@H](C)N)C(C)C)[C@@H](C)O)C(=O)O)C(=O)N[C@@H](Cc1ccccc1)C(=O)NCC(=O)N[C@@H](CO)C(=O)N[C@@H](CC(C)C)C(=O)N[C@@H](C)C(=O)N[C@@H](Cc1ccccc1)C(=O)N[C@@H](CC(C)C)C(=O)O` [Example 113], the values for the solubility (thermodynamic) at 90 min in the data set “physchem” (pH 6) and in the data set “physchem” (pH 7.4) were below 1 µg/mL and 2 µg/mL (≈ 0.785 µM), respectively. The corresponding values for `CC[C@H](C)[C@H](NC(=O)[C@@H](N)CCCCN)C(=O)N[C@@H](Cc1ccccc1)C(=O)NCC(=O)N[C@@H](CO)C(=O)N[C@@H](CC(C)C)C(=O)N[C@@H](C)C(=O)N[C@@H](Cc1ccccc1)C(=O)N[C@@H](CC(C)C)C(=O)O` [SEQ ID NO: 53, reference compound] are 100 µg/mL (≈ 100 µM) and 123 µg/mL (≈ 124 µM). Take H-ACGLYDGMEHL-OH [Example 92]: the “formation rate of GLYDGMEHL (SEQ ID NO: 19)” value on ERAP1 [1] came out at 5.2%.

Consider H-CAGLYDGMEHL-OH [Example 26], for which, on ERAP1 [2], the “formation rate(%) 1 hr later” value was found to be 87.8%, the “formation rate(%) 2 hr later” value was found to be 99.4%, the “formation rate(%) 4 hr later” value was 103% and the “formation rate(%) 8 hr later” value was determined as 97.5%. For H-CAVLQELNVTV-OH [Example 22], in that order: 46.1%, 49.9%, 51.3% and 53.5%. As to H-CDGLYDGMEHL-OH [Example 83], the “formation rate of GLYDGMEHL (SEQ ID NO: 19)” value at ERAP1 [3] is 25.0%.

In the case of H-CEGLYDGMEHL-OH [Example 70], on ERAP1 [3], the “formation rate of GLYDGMEHL (SEQ ID NO: 19)” value stood at 6.2%. Same read-out and setting: to H-CFGLYDGMEHL-OH [Example 75] belongs 0.0%; to H-CGGLYDGMEHL-OH [Example 71], 0.0%; to H-CHGLYDGMEHL-OH [Example 72], 0.0%. Same read-out and setting: as for H-CIGLYDGMEHL-OH [Example 73], the figure is 0.4%; as for H-CKGLYDGMEHL-OH [Example 74], 0.0%. For the compound H-CLGLYDGMEHL-OH [Example 27], at ERAP1 [2], the “formation rate(%) 1 hr later” value was found to be 58.3%, the “formation rate(%) 2 hr later” value worked out at 94.9%, the “formation rate(%) 4 hr later” value is 88.4% and the “formation rate(%) 8 hr later” value was determined as 88.3%. In the case of H-CLVLQELNVTV-OH [Example 23], on ERAP1 [2], the “formation rate(%) 1 hr later” value stood at 31.1%, the “formation rate(%) 2 hr later” value is given as 36.9%, the “formation rate(%) 4 hr later” value is recorded as 38.1% and the “formation rate(%) 8 hr later” value is 36.1%.

H-CMGLYDGMEHL-OH [Example 28]: on ERAP1 [2], the “formation rate(%) 1 hr later” value amounted to 90.6%, the “formation rate(%) 2 hr later” value is on record as 103%, the “formation rate(%) 4 hr later” value was 96.0% and the “formation rate(%) 8 hr later” value came out at 101%. Regarding H-CMVLQELNVTV-OH [Example 24], at ERAP1 [2], the “formation rate(%) 1 hr later” value was 28.7%, the “formation rate(%) 2 hr later” value worked out at 34.5%, the “formation rate(%) 4 hr later” value stood at 36.5% and the “formation rate(%) 8 hr later” value is 36.8%. As to H-CNGLYDGMEHL-OH [Example 82], the “formation rate of GLYDGMEHL (SEQ ID NO: 19)” value on ERAP1 [3] is on record as 82.2%. The same measure, in the same setting: as for H-CPGLYDGMEHL-OH [Example 76], the figure is 0.0%. The same measure, in the same setting: as for H-CQGLYDGMEHL-OH [Example 69], the figure is 56.9%; as for H-CRGLYDGMEHL-OH [Example 81], 0.0%; as for H-CSGLYDGMEHL-OH [Example 84], 1.1%. The same measure, in the same setting: to H-CTGLYDGMEHL-OH [Example 77] belongs 89.4%. For H-CVGLYDGMEHL-OH [Example 80], on ERAP1 [3], the “formation rate of GLYDGMEHL (SEQ ID NO: 19)” value turned out to be 0.0%.

On to H-CWGLYDGMEHL-OH [Example 78], for which, on ERAP1 [3], the “formation rate of GLYDGMEHL (SEQ ID NO: 19)” value amounted to 0.0%. On the same count and under the same terms, as for H-CYGLYDGMEHL-OH [Example 79], the figure is 0.0%. Take H-DCGLYDGMEHL-OH [Example 95]: the “formation rate of GLYDGMEHL (SEQ ID NO: 19)” value on ERAP1 [1] is listed as 3.2%. Turning to H-ECGLYDGMEHL-OH [Example 96], the “formation rate of GLYDGMEHL (SEQ ID NO: 19)” value at ERAP1 [1] turned out to be 2.9%. As for H-FCGLYDGMEHL-OH [Example 103], the “formation rate of GLYDGMEHL (SEQ ID NO: 19)” value on ERAP1 [1] was found to be 17.6%.

Consider H-GCGLYDGMEHL-OH [Example 97], for which the “formation rate of GLYDGMEHL (SEQ ID NO: 19)” value at ERAP1 [1] came to 10.4%.

As to H-HCGLYDGMEHL-OH [Example 98], the “formation rate of GLYDGMEHL (SEQ ID NO: 19)” value at ERAP1 [1] is reported as 0.0%. On the same count and under the same terms, to H-ICGLYDGMEHL-OH [Example 99] belongs 0.0%; to H-KCGLYDGMEHL-OH [Example 101], 0.0%; to H-LCGLYDGMEHL-OH [Example 100], 0.0%. On the same count and under the same terms, as for H-MCGLYDGMEHL-OH [Example 102], the figure is 5.8%; as for H-NCGLYDGMEHL-OH [Example 94], 18.2%. On the same count and under the same terms, as for H-PCGLYDGMEHL-OH [Example 86], the figure is 19.2%; as for H-QCGLYDGMEHL-OH [Example 85], 3.6%; as for H-RCGLYDGMEHL-OH [Example 93], 0.0%. For H-SCGLYDGMEHL-OH [Example 87], the “formation rate of GLYDGMEHL (SEQ ID NO: 19)” value on ERAP1 [1] is 22.2%. Same read-out and setting: as for H-TCGLYDGMEHL-OH [Example 88], the figure is 7.3%; as for H-VCGLYDGMEHL-OH [Example 91], 2.4%.

In the case of H-WCGLYDGMEHL-OH [Example 89], the “formation rate of GLYDGMEHL (SEQ ID NO: 19)” value on ERAP1 [1] was 0.0%.

On to H-YCGLYDGMEHL-OH [Example 90], for which the “formation rate of GLYDGMEHL (SEQ ID NO: 19)” value at ERAP1 [1] was determined as 5.7%.
